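Where inhibition never reached the appropriate level, the endpoint shown equals the highest concentration tested. Otherwise, values were interpolated linearly from a five-concentration, 48-hour dose response in 96-well plates. TGI denotes the concentration required for complete inhibition of growth.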
Tests used:
Experiment in all cases: NCI anticancer screen, dose series, 48 h
786-0 renal = test system: 786-0 renal
A498 renal = test system: A498 renal
A549 NSCLC = test system: A549 NSCLC
ACHN renal = test system: ACHN renal
BT-549 breast = test system: BT-549 breast
CAKI-1 renal = test system: CAKI-1 renal
CCRF-CEM leukemia = test system: CCRF-CEM leukemia
COLO 205 colon = test system: COLO 205 colon
DU-145 prostate = test system: DU-145 prostate
HCC-2998 colon = test system: HCC-2998 colon
HCT-116 colon = test system: HCT-116 colon
HCT-15 colon = test system: HCT-15 colon
HL-60(TB) leukemia = test system: HL-60(TB) leukemia
HOP-62 NSCLC = test system: HOP-62 NSCLC
HOP-92 NSCLC = test system: HOP-92 NSCLC
HS 578T breast = test system: HS 578T breast
HT29 colon = test system: HT29 colon
IGROV1 ovarian = test system: IGROV1 ovarian
K-562 leukemia = test system: K-562 leukemia
KM12 colon = test system: KM12 colon
LOX IMVI melanoma = test system: LOX IMVI melanoma
M14 melanoma = test system: M14 melanoma
MALME-3M melanoma = test system: MALME-3M melanoma
MCF7 breast = test system: MCF7 breast
MDA-MB-231 breast = test system: MDA-MB-231 breast
MDA-MB-435 = test system: MDA-MB-435
MDA-N = test system: MDA-N
MOLT-4 leukemia = test system: MOLT-4 leukemia
NCI-H226 lung = test system: NCI-H226 lung
NCI-H23 lung = test system: NCI-H23 lung
NCI-H460 lung = test system: NCI-H460 lung
NCI-H522 lung = test system: NCI-H522 lung
NCI/ADR-RES ovarian = test system: NCI/ADR-RES ovarian
OVCAR-3 ovarian = test system: OVCAR-3 ovarian
OVCAR-4 ovarian = test system: OVCAR-4 ovarian
OVCAR-5 ovarian = test system: OVCAR-5 ovarian
OVCAR-8 ovarian = test system: OVCAR-8 ovarian
PC-3 prostate = test system: PC-3 prostate
RPMI-8226 leukemia = test system: RPMI-8226 leukemia
RXF 393 renal = test system: RXF 393 renal
SF-268 CNS = test system: SF-268 CNS
SF-295 CNS = test system: SF-295 CNS
SF-539 CNS = test system: SF-539 CNS
SK-MEL-2 melanoma = test system: SK-MEL-2 melanoma
SK-MEL-28 melanoma = test system: SK-MEL-28 melanoma
SK-MEL-5 melanoma = test system: SK-MEL-5 melanoma
SK-OV-3 ovarian = test system: SK-OV-3 ovarian
SNB-19 CNS = test system: SNB-19 CNS
SNB-75 CNS = test system: SNB-75 CNS
SW-620 colon = test system: SW-620 colon
T-47D breast = test system: T-47D breast
TK-10 renal = test system: TK-10 renal
U251 CNS = test system: U251 CNS
UACC-257 melanoma = test system: UACC-257 melanoma
UACC-62 melanoma = test system: UACC-62 melanoma
UO-31 renal = test system: UO-31 renal
EKVX NSCLC = test system: EKVX NSCLC
SN12C renal = test system: SN12C renal

With `COc1ccc(OC)c2c1C(=O)C(=O)C(Cl)=C2O` the TGI (786-0 renal) was over 100 µM, the TGI (A498 renal) was over 100 µM and the TGI (A549 NSCLC) was over 100 µM. For the same molecule, the TGI (ACHN renal) was over 100 µM, the TGI (BT-549 breast) was over 100 µM and the TGI (CAKI-1 renal) was over 100 µM. It also gave a TGI (CCRF-CEM leukemia) of over 100 µM, a TGI (COLO 205 colon) of over 100 µM and a TGI (DU-145 prostate) of over 100 µM. For the same molecule, the TGI (HCC-2998 colon) was over 100 µM, the TGI (HCT-116 colon) was over 100 µM and the TGI (HCT-15 colon) was over 100 µM. The TGI (HL-60(TB) leukemia) was over 100 µM, the TGI (HOP-62 NSCLC) was over 100 µM and the TGI (HOP-92 NSCLC) was over 100 µM. It also gave a TGI (HS 578T breast) of over 100 µM, a TGI (HT29 colon) of over 100 µM and a TGI (IGROV1 ovarian) of over 100 µM. The TGI (K-562 leukemia) was over 100 µM, the TGI (KM12 colon) was over 100 µM and the TGI (LOX IMVI melanoma) was over 100 µM. The TGI (M14 melanoma) was over 100 µM, the TGI (MALME-3M melanoma) was over 100 µM and the TGI (MCF7 breast) was over 100 µM. For the same molecule, the TGI (MDA-MB-231 breast) was over 100 µM, the TGI (MDA-MB-435) was over 100 µM and the TGI (MDA-N) was over 100 µM. The TGI (MOLT-4 leukemia) was over 100 µM, the TGI (NCI-H226 lung) was over 100 µM and the TGI (NCI-H23 lung) was over 100 µM. The TGI (NCI-H460 lung) was over 100 µM, the TGI (NCI-H522 lung) was over 100 µM and the TGI (NCI/ADR-RES ovarian) was over 100 µM. For the same molecule, the TGI (OVCAR-3 ovarian) was over 100 µM, the TGI (OVCAR-4 ovarian) was over 100 µM and the TGI (OVCAR-5 ovarian) was over 100 µM. For the same molecule, the TGI (OVCAR-8 ovarian) was over 100 µM, the TGI (PC-3 prostate) was over 100 µM and the TGI (RPMI-8226 leukemia) was over 100 µM. It also gave a TGI (RXF 393 renal) of over 100 µM, a TGI (SF-268 CNS) of over 100 µM and a TGI (SF-295 CNS) of over 100 µM. For the same molecule, the TGI (SF-539 CNS) was over 100 µM, the TGI (SK-MEL-2 melanoma) was over 100 µM and the TGI (SK-MEL-28 melanoma) was over 100 µM. The TGI (SK-MEL-5 melanoma) was over 100 µM, the TGI (SK-OV-3 ovarian) was over 100 µM and the TGI (SNB-19 CNS) was over 100 µM. For the same molecule, the TGI (SNB-75 CNS) was over 100 µM, the TGI (SW-620 colon) was over 100 µM and the TGI (T-47D breast) was over 100 µM. The TGI (TK-10 renal) was over 100 µM, the TGI (U251 CNS) was over 100 µM and the TGI (UACC-257 melanoma) was over 100 µM. For the same molecule, the TGI (UACC-62 melanoma) was over 100 µM and the TGI (UO-31 renal) was over 100 µM.

In the case of `CCOC(=O)/C=C\c1c(Cl)n(-c2ccccc2)c(=O)n(-c2ccccc2)c1=O`, the TGI (786-0 renal) is reported as 39.6 µM, the TGI (A498 renal) is reported as 50.8 µM and the TGI (A549 NSCLC) is reported as 60.1 µM. The TGI (ACHN renal) was 35.1 µM, the TGI (BT-549 breast) was 36.1 µM and the TGI (CAKI-1 renal) was 35.7 µM. It also gave a TGI (CCRF-CEM leukemia) of 58.7 µM, a TGI (COLO 205 colon) of 34.6 µM and a TGI (DU-145 prostate) of 34.9 µM. For the same molecule, the TGI (EKVX NSCLC) was 48.5 µM, the TGI (HCC-2998 colon) was 33.2 µM and the TGI (HCT-116 colon) was 54.9 µM. For the same molecule, the TGI (HCT-15 colon) was 39.7 µM, the TGI (HL-60(TB) leukemia) was 23.4 µM and the TGI (HOP-62 NSCLC) was 40 µM. For the same molecule, the TGI (HOP-92 NSCLC) was 36 µM, the TGI (HS 578T breast) was 65.2 µM and the TGI (HT29 colon) was 38.4 µM. It also gave a TGI (IGROV1 ovarian) of 36.2 µM, a TGI (KM12 colon) of 35.8 µM and a TGI (LOX IMVI melanoma) of 50.6 µM. The TGI (M14 melanoma) was 33.7 µM, the TGI (MALME-3M melanoma) was 44 µM and the TGI (MCF7 breast) was 46 µM. The TGI (MDA-MB-231 breast) was 36.3 µM, the TGI (MDA-MB-435) was 44.8 µM and the TGI (MDA-N) was 31.8 µM. For the same molecule, the TGI (MOLT-4 leukemia) was 87.2 µM, the TGI (NCI-H226 lung) was 50.8 µM and the TGI (NCI-H23 lung) was 41.7 µM. For the same molecule, the TGI (NCI-H460 lung) was 34.1 µM, the TGI (NCI-H522 lung) was 46.5 µM and the TGI (NCI/ADR-RES ovarian) was 72.7 µM. For the same molecule, the TGI (OVCAR-3 ovarian) was 36.1 µM, the TGI (OVCAR-4 ovarian) was over 100 µM and the TGI (OVCAR-5 ovarian) was 36.9 µM. For the same molecule, the TGI (OVCAR-8 ovarian) was 34.7 µM, the TGI (PC-3 prostate) was 33.3 µM and the TGI (RXF 393 renal) was 32.9 µM. It also gave a TGI (SF-268 CNS) of 44.7 µM, a TGI (SF-295 CNS) of 40.2 µM and a TGI (SF-539 CNS) of 31.8 µM. For the same molecule, the TGI (SK-MEL-2 melanoma) was 33.5 µM, the TGI (SK-MEL-28 melanoma) was 41.1 µM and the TGI (SK-OV-3 ovarian) was 37.2 µM. For the same molecule, the TGI (SN12C renal) was 36.4 µM, the TGI (SNB-19 CNS) was 31.6 µM and the TGI (SNB-75 CNS) was 29.2 µM. The TGI (SW-620 colon) was 61.6 µM, the TGI (T-47D breast) was 42.2 µM and the TGI (TK-10 renal) was 32.3 µM. The TGI (U251 CNS) was over 100 µM, the TGI (UACC-257 melanoma) was 35.5 µM and the TGI (UACC-62 melanoma) was 34.8 µM. It also gave a TGI (UO-31 renal) of 33.2 µM.

In the case of `CC1=NN(C(=O)CC(=O)N(C(=O)c2ccccc2)c2ccc(Cl)cc2)C(=O)C1N=Nc1ccc([N+](=O)[O-])cc1` (stereo not drawn), the TGI (786-0 renal) is reported as over 10 µM, the TGI (A498 renal) is reported as over 10 µM and the TGI (A549 NSCLC) is reported as over 10 µM. For the same molecule, the TGI (ACHN renal) was over 10 µM, the TGI (BT-549 breast) was over 10 µM and the TGI (CAKI-1 renal) was over 10 µM. It also gave a TGI (CCRF-CEM leukemia) of over 10 µM, a TGI (COLO 205 colon) of over 10 µM and a TGI (DU-145 prostate) of over 10 µM. It also gave a TGI (EKVX NSCLC) of over 10 µM, a TGI (HCC-2998 colon) of over 10 µM and a TGI (HCT-116 colon) of over 10 µM. For the same molecule, the TGI (HCT-15 colon) was over 10 µM, the TGI (HL-60(TB) leukemia) was over 10 µM and the TGI (HOP-62 NSCLC) was over 10 µM. It also gave a TGI (HOP-92 NSCLC) of over 10 µM, a TGI (HS 578T breast) of over 10 µM and a TGI (HT29 colon) of over 10 µM. The TGI (IGROV1 ovarian) was over 10 µM, the TGI (K-562 leukemia) was over 10 µM and the TGI (KM12 colon) was over 10 µM. For the same molecule, the TGI (LOX IMVI melanoma) was over 10 µM, the TGI (MALME-3M melanoma) was over 10 µM and the TGI (MCF7 breast) was over 10 µM. For the same molecule, the TGI (MDA-MB-231 breast) was over 10 µM, the TGI (MDA-MB-435) was over 10 µM and the TGI (MDA-N) was over 10 µM. For the same molecule, the TGI (MOLT-4 leukemia) was over 10 µM, the TGI (NCI-H226 lung) was over 10 µM and the TGI (NCI-H23 lung) was over 10 µM. The TGI (NCI-H460 lung) was over 10 µM, the TGI (NCI-H522 lung) was over 10 µM and the TGI (NCI/ADR-RES ovarian) was over 10 µM. It also gave a TGI (OVCAR-3 ovarian) of over 10 µM, a TGI (OVCAR-4 ovarian) of over 10 µM and a TGI (OVCAR-5 ovarian) of over 10 µM. It also gave a TGI (OVCAR-8 ovarian) of over 10 µM, a TGI (PC-3 prostate) of over 10 µM and a TGI (RPMI-8226 leukemia) of over 10 µM. The TGI (RXF 393 renal) was over 10 µM, the TGI (SF-268 CNS) was over 10 µM and the TGI (SF-295 CNS) was over 10 µM. It also gave a TGI (SF-539 CNS) of over 10 µM, a TGI (SK-MEL-2 melanoma) of over 10 µM and a TGI (SK-MEL-28 melanoma) of over 10 µM. It also gave a TGI (SK-MEL-5 melanoma) of over 10 µM, a TGI (SK-OV-3 ovarian) of over 10 µM and a TGI (SN12C renal) of over 10 µM. The TGI (SNB-19 CNS) was over 10 µM, the TGI (SNB-75 CNS) was over 10 µM and the TGI (SW-620 colon) was over 10 µM. It also gave a TGI (T-47D breast) of over 10 µM, a TGI (TK-10 renal) of over 10 µM and a TGI (U251 CNS) of over 10 µM. For the same molecule, the TGI (UACC-257 melanoma) was over 10 µM, the TGI (UACC-62 melanoma) was over 10 µM and the TGI (UO-31 renal) was over 10 µM.
